Values after ≈ are worked out from the molar mass of the structure shown.
Assays:
[1] = tested on: isolated guinea pig lung strips, Platelet activating factor (PAF); assay: antagonist of PAF-induced contraction of isolated guinea pig lung strips; format: cell-based; conditions: Cavia porcellus, read-out: Anticontractile action (lung), PAF: concentration range corresponding to the IC50 value
Description: (§1) 4. Activity as an antagonist of the contraction of isolated guinea pig lung strips
(§2) The test carried out is based on the same principle as the test indicated in the pharmacological test 3; however, lung strips are used here.
(§3) Preparation of the organ sections and experimental procedure:
(§4) The guinea pig is sacrificed under laughing gas anaesthesia. The entire pulmonary tract is exposed starting from the trachea. The lobes of the lung are cut in a circular fashion such that 3 mm wide strips are formed. The strips of the upper lobes are divided in order to obtain a total of six approximately equal size strips. The strips are suspended in the organ baths under a preload of 4 g. The nutrient solutions used are modified Krebs Henseleit solutions. When using "Platelet activating factor" (PAF) as an […], the composition of this solution corresponds to that for the agonist SP in "Test 3"; for the agonist LTD4 a Krebs Henseleit solution as in the case of the agonist KCl (Test 3) is used. 95% by volume O2, 5% by volume CO2 is used for bubbling through the bath; the bath temperature is 37° C. The experimental procedure is carried out in a therapeutically cumulative methodology, using the dosage graduations 1, 3, 6 and 10 μg/ml.
(§5) The experimental animals, organ bath, vehicles and manner of administration correspond to that stated in pharmacological test 3.
(§6) All numerical values are indicated in the unit μg/ml and relate to the concentration range of tested compound of the formula I (see example numbers in Table 1) which is necessary in order to cause a contraction which corresponds to the IC50 value.

[2] = tested on: isolated guinea pig trachea, agonist substance P; assay: antagonist of substance P-induced contraction of isolated guinea pig trachea; format: cell-based; conditions: Cavia porcellus, individual doses, 37° C., read-out: Anticontractile action (trachea), SP antagonism: concentration range for dilatation corresponding to ED50 range
Description: (§7) 3. Activity as antagonist of the contraction of isolated guinea pig trachea
(§8) The compounds of the formula I are used as antagonists of the contraction of isolated guinea pig trachea. The agonists employed were PGF2α (Upjohn, Germany), calcium ionophore A23187 (Calbiochem, Bad Soden, Germany), and substance P (American Peptide Comp., USA):
The antagonism is possible on the one hand due to specific receptor antagonists, and on the other hand also due to inhibition of the subsequent signal pathway. Preparations which directly or indirectly increase the intracellular concentration of cyclic nucleotides in particular show spasmolytic properties here.
as §3
(§9) The guinea pig is sacrificed by means of terminal laughing gas anaesthesia. The trachea is exposed along its entire length and cut into 15 individual cartilage rings. 5 rings in each case are tied together to give a chain and fixed in the organ bath under a preload of 3 g. After an equilibration time of 45 minutes, a contraction is produced using the agonist. The antagonist (test preparation) is added cumulatively on the plateau of the maximum. Evaluation is carried out in % force change relative to the contraction maximum. The experimental procedure is carried out at 37° C.; the physiological nutrient solution used is a modified Krebs-Henseleit solution through which is bubbled 95% by volume of O2, 5% by volume of CO2.
(§10) Experimental animals: albino guinea pigs (Hattersheim Animal Breeding Institute, Kastengrund, Germany), weight: 200 to 300 g, sex male or female.
(§11) Vehicle: double-distilled water, ethanol or isopropanol; administration: into the organ bath number of administration: cumulative, in SP individual doses
(§12) All numerical values are indicated in the unit μg/ml and relate to the concentration range of the tested compound of the formula I according to the invention (see example numbers in Table 1) which is necessary in order to cause a dilatation which corresponds to the ED50 range.

[3] = tested on: isolated guinea pig trachea, agonist PGF2α; assay: antagonist of PGF2α-induced contraction of isolated guinea pig trachea; format: cell-based; conditions: Cavia porcellus, 37° C., read-out: Anticontractile action (trachea), PGF2α: concentration range for dilatation corresponding to ED50 range
Description: as §7, §8
Inhibition of contractions which are induced by this cyclooxygenase product is only possible by competitive antagonism at the receptor or of the subsequent signal pathway.
as §3, §9, §10, §11, §12

[4] = tested on: isolated guinea pig trachea, agonist calcium ionophore A23187; assay: antagonist of calcium ionophore A23187-induced contraction of isolated guinea pig trachea; format: cell-based; conditions: Cavia porcellus, 37° C., read-out: Anticontractile action (trachea), Ca ionophore: concentration range for dilatation corresponding to ED50 range
Description: as §7, §8
b) Calcium ionophore A23187 (Calbiochem, Bad Soden) acts by increased uptake of calcium ions, and an activation of all calcium-dependent signal cascades in the cell. Lipoxygenase inhibitors, in particular, and generally antiinflammatory substances show effects in this model.
as §3, §9, §10, §11, §12

[5] = tested on: isolated guinea pig lung strips, leukotriene D4 (LTD4); assay: antagonist of LTD4-induced contraction of isolated guinea pig lung strips; format: cell-based; conditions: Cavia porcellus, read-out: Anticontractile action (lung), LTD4: concentration range corresponding to the IC50 value
Description: as §1, §2, §3, §4, §5, §6

phosphodiesterase III = assay: inhibition of phosphodiesterase III activity; format: biochemical; conditions: at 100 μM
Procedure: 5. Inhibition of phosphodiesterase III activity
The test is carried out using phosphodiesterase from Boehringer Mannheim (Mannheim, Germany), Order No. 108 243 according to the method of T. SAEKI, I. SAITO, Biochem. Pharm. 46, No. 5, […], pages 833-839.
All numerical values are indicated in % inhibition of the enzyme activity at 100 μM of the corresponding compound of the formula I.

[6] = tested on: Endotoxin (LPS) from Salmonella abortus equi; assay: effect on endotoxin fatality (LPS-induced septic shock); format: in vivo, female NMRI mice; conditions: 25 mg/kg i.p. at the same time as LPS 60 mg/kg i.p.; 72 hours; vs placebo control
Procedure: 2. Test for effect on endotoxin fatality
Individual injections of lipopolysaccharide (LPS), from gram-negative bacteria, lead via a series of various symptoms to septic shock, which usually turns out to be fatal. Endotoxin (LPS) from Salmonella abortus equi in a dose of 60 mg/kg i.p. leads to shock and to death with at most 72 h p.a. (the dose of 60 mg/kg corresponds to approximately 1.20 mg of LPS/animal).
The experimental animals used are female NMRI mice from the Hoechst AG/Hattersheim animal breeding unit having a body weight of 22 to 24 g.
The test substances administered intraperitoneally (i.p.) in an administration volume of 10 ml/kg at the same time as the LPS. The number of surviving animals after 72 hours' LPS administration is indicated in comparison to a placebo control. The number of tested animals per group is 5; dose 25 mg/kg.

soleus muscle = assay: rat muscle function test: muscle weight (atrophy of immobilized extremity); format: in vivo, male Wistar rats; conditions: oral, 1x per day for 3 weeks, as a rule 25 mg/kg, difference ≤25% classified as an effect
Description: (§13) 1. Activity in the rat muscle function test
(§14) Male Wistar rats (body weight about 300 g) were kept under standard conditions with feed and water ad libitum. The right rear extremity was immobilized by fitting a kind of "shoe" to the animals under short-term anaesthesia. Two ergonomically fitted halves of the "shoe" were cast from a liquid plastic material which is also used for the production of dental prostheses, these were put onto the animal under brief anaesthesia and joined with the aid of a wire. The material is light but hard, so that the animals cannot gnaw the material, and the "shoe" can be opened at any time to examine the condition of the immobilized extremity. The two halves were moreover padded out with chamois leather in order to avoid compressions and possible injuries due to rubbing. The system also has the advantage that the angle of immobilization is standardized in all animals; this would not be possible with a plaster cast. The chosen angle allows the animals to take up a normal sitting position despite the "shoe" and also to carry the body weight using this extremity. Only complete stretching or bending of the leg is impossible.
In spite of this, a significant decrease in the skeletal muscle mass (atrophy) of the immobilized extremity occurred, to be precise up to -35% in comparison with the contralateral nonimmobilized rear extremity. As the soleus muscle was the most severely affected, the changes in muscle weight after administration of preparation shown in Table 1 relate to this muscle. A difference of ≤25% between the right immobilized and left non-immobilized rear extremity was classified as an effect.
(§15) After 3 weeks' immobilization of the right rear extremity and simultaneous oral administration of test preparations (1× per day using a stomach tube; as a rule 25 mg/kg of body weight, in carboxymethylcellulose, the animals were weighed and anaesthetized with pentobarbital (35 mg/kg i.p.). Functional parameters were measured during direct electrical stimulation of a muscle group (gastrocnemius, plantaris and soleus). This muscle group, merely called "muscle" in the following, was exposed at the ankle tendon and tied to a force transducer via the tendon.

[7] = tested on: muscle group (gastrocnemius, plantaris and soleus) of the immobilized right rear extremity; assay: rat muscle function test: direct electrical stimulation of muscle group after 3 weeks' immobilization; format: in vivo, male Wistar rats; conditions: oral, 1x per day for 3 weeks, as a rule 25 mg/kg, ≤-12% classified as active; for Force (force under the contraction curve, right/left difference): isometric stimulation, control difference approx. 25%; for Work (performed work, right/left difference): isotonic stimulation, control approx. -25%
Description: as §13, §14, §15
To determine the contractile force, the muscles were stimulated isometrically, i.e. a preload of 0.5N was applied and the muscle was stimulated by means of a series of electrical pulses, which led to a maximum contraction, every 0.7 sec for 80 msec for a period of 15 min. […] The area under this contraction curve was evaluated and the difference in percent between the right atrophic and left normal muscle compared (force under the contraction curve as difference in percent (Δ%)). The difference in the control group is approximately 25%.
An isotonic muscle stimulation was used to determine the performed work of the muscle over time. In this type of measurement, the shortening of the muscle during contraction is used as a basis. To this end, a preload which corresponds to the body weight was applied to the muscles. A series of stimulation pulses (80 msec) were triggered every 3 sec and the muscle was stimulated for 15 min. The data (contraction force and distance travelled) were converted to the work performed in the unit J using an automated system. The difference in the work performed between the immobilized atrophic and the normal muscle in the control animals was approximately -25%.
Values which are positive indicate that the functional parameters of the immobilized muscle were better than those of the contralateral normal muscle.

| SMILES | IC50 [1] [µg/mL] | EC50 [2] [µg/mL] | EC50 [3] [µg/mL] | EC50 [4] [µg/mL] | IC50 [5] [µg/mL] | PDE III Inhibition (phosphodiesterase III) [%] | Inhibition of mortality [6] [%] | Muscle weight (right/left difference) (soleus muscle) | Force (force under the contraction curve, right/left difference) [7] | Work (performed work, right/left difference) [7] |
| --- | --- | --- | --- | --- | --- | --- | --- | --- | --- | --- |
| CCOP(=O)(CCCCn1cnc2c1c(=O)n(CC)c(=O)n2C)OCC [Example 4, Diethyl [4-(1-ethyl-3-methylxanthin-7-yl)butyl]phosphonate] | 1 to 3 (≈ 2.59 to 7.76 µM) | 10 to 30 (≈ 25.9 to 77.6 µM) | > 10 | > 10 | – | – | – | – | – | – |
| CCOP(=O)(CCCCn1c(=O)c2c(ncn2Cc2ccccc2)n(C)c1=O)OCC [Example 23, Diethyl [4-(7-benzyl-3-methylxanthin-1-yl)butyl]phosphonate] | 1 to 3 (≈ 2.23 to 6.69 µM) | 10 to 30 (≈ 22.3 to 66.9 µM) | > 10 | > 10 | 1 to 3 (≈ 2.23 to 6.69 µM) | 65 | – | – | – | – |
| CCOP(=O)(CCCCn1c(=O)c2[nH]cnc2n(C)c1=O)OCC [Example 24, Diethyl [4-(3-methylxanthin-1-yl)-butyl]phosphonate] | – | 30 to 60 (≈ 83.7 to 167 µM) | > 10 | – | – | – | 100 | -20 Δ % | +6 Δ % | -5 Δ % |
| CCOP(=O)(CCCCn1c(=O)c2c(ncn2CC)n(C)c1=O)OCC [Example 30, Diethyl [4-(7-ethyl-3-methylxanthin-1-yl)butyl]phosphonate] | 3 to 6 (≈ 7.76 to 15.5 µM) | 10 to 30 (≈ 25.9 to 77.6 µM) | > 10 | 10 (≈ 25.9 µM) | 6 to 10 (≈ 15.5 to 25.9 µM) | – | – | 0 Δ % | +2 Δ % | +5 Δ % |
| CCCn1cnc2c1c(=O)n(CCCCP(=O)(OCC)OCC)c(=O)n2C [Example 32, Diethyl [4-(3-methyl-7-propyl-xanthin-1-yl)butyl]phosphonate] | 6 to 10 (≈ 15 to 25 µM) | 10 to 30 (≈ 25 to 74.9 µM) | – | – | 6 to 10 (≈ 15 to 25 µM) | 65 | – | 0 Δ % | -9 Δ % | -1 Δ % |
| CCOP(=O)(CCCn1c(=O)c2c(ncn2CC)n(C)c1=O)OCC [Example 34, Diethyl [3-(7-ethyl-3-methylxanthin-1-yl)propyl]phosphonate] | – | – | – | – | – | 82 | 60 | – | -5 Δ % | -11 Δ % |
| CCOP(=O)(CCCn1c(=O)c2c(ncn2CCOC)n(C)c1=O)OCC [Example 35, Diethyl [3-(7-methoxyethyl-3-methylxanthin-1-yl)propyl]phosphonate] | 3 to 6 (≈ 7.46 to 14.9 µM) | 30 to 60 (≈ 74.6 to 149 µM) | – | > 10 | – | – | – | – | – | – |
| CCCn1cnc2c1c(=O)n(CCCP(=O)(OCC)OCC)c(=O)n2C1CC1 [Example 39] | – | – | – | – | 3 to 6 (≈ 7.27 to 14.5 µM) | 65 | 100 | – | – | – |
| CCCCn1cnc2c1c(=O)n(CCCP(=O)(OCC)OCC)c(=O)n2CCCC [Example 40, Diethyl [3-(3,7-dibutylxanthin-1-yl)propyl]phosphonate] | – | – | – | – | – | – | 100 | – | – | – |
